Assay results reported in patent publication US7067667B2, “Aminoalkyl-3, 4-dihydroquinoline derivatives as no-synthase inhibitors” (Schering Aktiengesellschaft, priority 1998, dated 2006).
Structures can show the parent of a compound that is named as a salt.

Target: bNOS (UniProt P29475)
Experiment: bNOS inhibition (method of Bredt and Snyder)
Assay type: biochemical
Text: The NOS-inhibitory action of the compounds of Formula (I) and their physiologically compatible salts can be determined according to the methods by Bredt and Snyder in Proc. Natl. Acad. Sci. USA (1989) 86, 9030–9033.

- IC50: 190 nM
SMILES: NC1=Nc2cc(CCNCc3cccc(Cl)c3)c(Cl)cc2C2CCCC12 (stereo not shown) [Example 8, 4-Amino-8-chloro-7-(3-chlorobenzylamino)ethyl-2,3,3a,9b-tetrahydro-1H-cyclopenta[c]quinoline Dihydrochloride]
